Experimental data published in patent US11639496B2, “Reducing fratricide of immune cells expressing NKG2D-based receptors” (CELYAD S.A, priority 2017, dated 2023).

Key:
Assay type in all cases: cell-based, human
K562 or PANC-1 cells = experiment: Cytokine release assay: IFN-γ ELISA after co-culture of NKR-2 T cells with cancer cells; conditions: cells cultured with PI3K inhibitor (5 μM CAL101), compared with blocking NKG2D antibody
Protocol: Fresh NKR-2 T cells and/or control tCD19 cells were incubated with K562 or PANC-1 cells at a ratio of 1:1 in X-Vivo 15 containing 5% HS. Following an incubation of 24 h supernatants were harvested and IFN-γ measured by ELISA (R&D Systems, SIF50) according to manufacturer's protocol. As a positive control cells were activated with PMA (Sigma-Aldrich, P8139-5MG) and ionomycin (Sigma-Aldrich, 10634-1MG). To assess the background levels of activation the cells received no stimulus.
Antibody Inhibition Assay NKR-2 T cells were incubated with 1 μg/mL of NKG2D blocking antibody, isotype control or no antibody for 24 hours and subsequently NKR-2 T cells mediated secretion of IFN-γ measured. Similarly, NKR-2 cells were co-cultured with cancer cells in the presence of antibody and cytokine secretion measured.

NKR-2 T cells = experiment: Fold expansion / cell yield of NKR-2 (NKG2D CAR) T cells during manufacturing culture; conditions: compared to cells without inhibition of NKG2D signaling
Protocol: (A) MFI of NKG2D expression on NKR-2 T cells treated or not with increasing concentrations of LY294002. Data shown are mean±SD of N=3 independent donors. (B) Transduced T cells were cultured in complete X-vivo (100 IU/ml IL-2) supplemented or not with increasing concentrations of LY294002 for expansion. T cells were analyzed 96 h after seeding for fold expansion relative to the initial cell seeding density. Data shown are mean±SD of N=3 independent donors. (C) Viability of cells after cryopreservation. NKR-2 T cells were produced in presence of increasing concentration of LY294002. After production, cells were harvested, washed, and formulate for cryopreservation. […] Cells viability was directly assessed after thawing (T0 h) or after 6 hours at 4° C. in Plasmalyte/HSA5% (T6 h) (N=[…]) (D) NKR-2 T cells were produced in presence of increasing concentration of LY294002. […] After 48 hours, cell viability was assessed using trypan blue staining (N=3) and normalized for the number of cells at cryopreservation (E) tCD19 T cells were co-cultured with NKR-2 T cells generated from the same donor in presence of increasing concentrations of blocking Ab (from 0 (−) to 10 μg/ml). […] Following a 24 h incubation, supernatants were harvested and IFN-γ measured (N=3). […]
FIG. 9: NKR-2 T cells Ab blockade process adaptation restores CD4/CD8 ratio. […] PANC-1 viability was assessed every 2 hours by the IncuCyte S3 device. […]

NKG2D (CD314) = experiment: Flow cytometry of NKG2D (CD314) cell surface expression on NKR-2 T cells
Protocol: (A) MFI of NKG2D expression on NKR-2 T cells treated or not with increasing concentrations of LY294002. Data shown are mean±SD of N=3 independent donors. (B) Transduced T cells were cultured in complete X-vivo (100 IU/ml IL-2) supplemented or not with increasing concentrations of LY294002 for expansion. T cells were analyzed 96 h after seeding for fold expansion relative to the initial cell seeding density. Data shown are mean±SD of N=3 independent donors. (C) Viability of cells after cryopreservation. NKR-2 T cells were produced in presence of increasing concentration of LY294002. After production, cells were harvested, washed, and formulate for cryopreservation. After cryopreservation, cells were thawed using a water bath and resuspended in Plasmalyte/Human Serum Albumin (HSA) 5%. Cells viability was directly assessed after thawing (T0 h) or after 6 hours at 4° C. in Plasmalyte/HSA5% (T6 h) (N=[…]) (D) NKR-2 T cells were produced in presence of increasing concentration of LY294002. […] After 48 hours, cell viability was assessed using trypan blue staining (N=3) and normalized for the number of cells at cryopreservation (E) tCD19 T cells were co-cultured with NKR-2 T cells generated from the same donor in presence of increasing concentrations of blocking Ab (from 0 (−) to 10 μg/ml). […] Following a 24 h incubation, supernatants were harvested and IFN-γ measured (N=3). […]

SMILES: CC[C@H](Nc1ncnc2[nH]cnc12)c1nc2cccc(F)c2c(=O)n1-c1ccccc1 [Cal-101, idelalisib]
- IFN gamma secretion post co-culture with K562 cells (K562 or PANC-1 cells): produce more interferon

SMILES: Nc1cccc(-c2cc3c(Oc4cccc(O)c4)ncnc3[nH]2)c1 [TWS119]
- expansion with downstream inhibitors of the PI3K pathway (NKR-2 T cells): expansion is increased

SMILES: O=c1cc(N2CCOCC2)oc2c(-c3ccccc3)cccc12 [LY294002]
- concentration at which NKG2D expression reaches the level of control tCD19 T cells (NKG2D (CD314)): 10 µM
